From patent US20220177538A1, “CO-AGONISTS AT GLP-1 AND GIP RECEPTORS SUITABLE FOR ORAL DELIVERY” (Novo Nordisk A/S, priority 2020, published 2022)
Like-named read-outs stand apart in the source and are kept apart here. Starred links: 1 amine or outer side, 2 acyl side, 3 side chain; linkers in the order of their positions; H or OH if unused. Non-standard residues stand in square brackets, D forms with d. Residues, ends and D or L forms follow the SMILES beside them. Groups on a side chain read outwards from the residue. *: point of attachment. C18 diacid = O=C(O)CCCCCCCCCCCCCCCCC(=O)*; γGlu = O=C(O)[C@H](CCC(=O)[*:2])N[*:1]; εLys = N[C@@H](CCCCN[*:1])C(=O)[*:2]; Aib = CC(C)(N)C(=O)O

Target: T1, human GIP receptor (Homo sapiens, UniProt P48546)
T1 construct: expressed in transfected cells; host or cells: BHK (parent line BHKTS13), clone BHK CRE luc2P hGIPR
T1 sequence (P48546 22-466): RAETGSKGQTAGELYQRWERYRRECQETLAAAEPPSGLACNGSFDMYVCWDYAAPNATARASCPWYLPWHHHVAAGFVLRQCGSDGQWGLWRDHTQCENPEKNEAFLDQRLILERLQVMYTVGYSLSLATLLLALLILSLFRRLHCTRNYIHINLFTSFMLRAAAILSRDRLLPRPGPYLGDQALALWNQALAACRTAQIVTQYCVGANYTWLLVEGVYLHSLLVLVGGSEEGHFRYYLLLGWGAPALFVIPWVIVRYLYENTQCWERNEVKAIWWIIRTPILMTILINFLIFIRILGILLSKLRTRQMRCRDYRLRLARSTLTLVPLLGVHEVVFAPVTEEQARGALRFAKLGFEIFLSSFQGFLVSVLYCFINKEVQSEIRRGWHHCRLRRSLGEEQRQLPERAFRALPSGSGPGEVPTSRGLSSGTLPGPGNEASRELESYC
Experiment: In vitro functional potency, CRE luciferase reporter, whole BHK cells (hGIPR)
Type: cell-based
Conditions: BHK CRE luc2P hGIPR cells
Summary of the method: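 BHK CRE luc2P cells stably expressing hGIPR or hGLP-1R were seeded at 5000 cells/well overnight. They were treated 3 h at 37° C with a 12-point, 3.5-fold compound series in buffer with or without HSA, and luciferase luminescence was read. Values come from log(agonist)-response regression, averaging at least two replicates.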

[1] = 0% HSA, read-out: hGIPR, CRE Luc 0% HSA EC50
[2] = hGIPR, CRE Luc 1% HSA EC50, 1% HSA

Row | Compound | EC50 [1] [nM] | EC50 [2] [nM] | EC50 (hGIPR, CRE Luc 0% HSA EC50, 0% HSA) [nM]
1 | CC[C@H](C)[C@H](NC(=O)[C@H](Cc1ccccc1)NC(=O)[C@H](CCC(=O)O)NC(=O)[C@H](CCCNC(=N)N)NC(=O)[C@H](C)NC(=O)[C@H](C)NC(=O)[C@H](CCC(N)=O)NC(=O)[C@H](CCCCNC(=O)[C@@H](N)CCCCNC(=O)[C@@H](N)CCCCNC(=O)CC[C@H](NC(=O)CCCCCCCCCCCCCCCCC(=O)O)C(=O)O)NC(=O)[C@H](CCC(=O)O)NC(=O)[C@H](CC(C)C)NC(=O)[C@H](CC(C)C)NC(=O)[C@@H](NC(=O)[C@H](CO)NC(=O)[C@H](Cc1ccc(O)cc1)NC(=O)[C@H](CC(=O)O)NC(=O)[C@H](CO)NC(=O)[C@@H](NC(=O)[C@H](Cc1ccccc1)NC(=O)[C@@H](NC(=O)CNC(=O)[C@H](CCC(=O)O)NC(=O)C(C)(C)NC(=O)[C@@H](N)Cc1ccc(O)cc1)[C@@H](C)O)[C@@H](C)O)[C@@H](C)CC)C(=O)N[C@@H](CCC(=O)O)C(=O)N[C@@H](Cc1c[nH]c2ccccc12)C(=O)N[C@@H](CC(C)C)C(=O)N[C@@H](CC(C)C)C(=O)N[C@@H](C)C(=O)NCC(=O)NCC(=O)N1CCC[C@H]1C(=O)N[C@@H](CO)C(=O)N[C@@H](CO)C(=O)NCC(=O)N[C@@H](C)C(=O)N1CCC[C@H]1C(=O)N1CCC[C@H]1C(=O)N1CCC[C@H]1C(=O)N[C@@H](CO)C(=O)O [Compound 31] (H-Y[Aib]EGTFTSDYSILLEK([εLys-εLys-γGlu-C18 diacid])QAAREFIEWLLAGGPSSGAPPPS-OH) | 0.0047 | 0.189 | 
2 | CC[C@H](C)[C@H](NC(=O)[C@H](Cc1ccccc1)NC(=O)[C@H](CCC(=O)O)NC(=O)[C@H](CCC(N)=O)NC(=O)[C@H](C)NC(=O)[C@H](C)NC(=O)[C@H](CCC(N)=O)NC(=O)[C@H](CCCCNC(=O)[C@@H](N)CCCCNC(=O)[C@@H](N)CCCCNC(=O)CC[C@H](NC(=O)CCCCCCCCCCCCCCCCC(=O)O)C(=O)O)NC(=O)[C@H](CCC(=O)O)NC(=O)[C@H](CC(C)C)NC(=O)[C@H](CC(C)C)NC(=O)[C@@H](NC(=O)[C@H](CO)NC(=O)[C@H](Cc1ccc(O)cc1)NC(=O)[C@H](CC(=O)O)NC(=O)[C@H](CO)NC(=O)[C@@H](NC(=O)[C@H](Cc1ccccc1)NC(=O)[C@@H](NC(=O)CNC(=O)[C@H](CCC(=O)O)NC(=O)C(C)(C)NC(=O)[C@@H](N)Cc1ccc(O)cc1)[C@@H](C)O)[C@@H](C)O)[C@@H](C)CC)C(=O)N[C@@H](CCC(=O)O)C(=O)N[C@@H](Cc1c[nH]c2ccccc12)C(=O)N[C@@H](CC(C)C)C(=O)N[C@@H](CC(C)C)C(=O)N[C@@H](C)C(=O)NCC(=O)NCC(=O)N1CCC[C@H]1C(=O)N[C@@H](CO)C(=O)N[C@@H](CO)C(=O)NCC(=O)N[C@@H](C)C(=O)N1CCC[C@H]1C(=O)N1CCC[C@H]1C(=O)N1CCC[C@H]1C(=O)N[C@@H](CO)C(=O)O [Compound 29] (H-Y[Aib]EGTFTSDYSILLEK([εLys-εLys-γGlu-C18 diacid])QAAQEFIEWLLAGGPSSGAPPPS-OH) | 0.0038 | 0.102 | 
3 | CC[C@H](C)[C@H](NC(=O)[C@H](Cc1ccccc1)NC(=O)[C@H](CCC(=O)O)NC(=O)[C@H](CCCNC(=N)N)NC(=O)[C@H](C)NC(=O)[C@H](C)NC(=O)[C@H](CCC(N)=O)NC(=O)[C@H](CCCCNC(=O)[C@@H](N)CCCCNC(=O)[C@@H](N)CCCCNC(=O)CC[C@H](NC(=O)CCCCCCCCCCCCCCCCC(=O)O)C(=O)O)NC(=O)[C@H](CCC(=O)O)NC(=O)[C@H](CC(C)C)NC(=O)[C@H](CC(C)C)NC(=O)[C@@H](NC(=O)[C@H](CO)NC(=O)[C@H](Cc1ccc(O)cc1)NC(=O)[C@H](CC(=O)O)NC(=O)[C@H](CO)NC(=O)[C@@H](NC(=O)[C@H](Cc1ccccc1)NC(=O)[C@@H](NC(=O)CNC(=O)[C@H](CCC(=O)O)NC(=O)C(C)(C)NC(=O)[C@@H](N)Cc1ccc(O)cc1)[C@@H](C)O)[C@@H](C)O)[C@@H](C)CC)C(=O)N[C@@H](CCC(=O)O)C(=O)N[C@@H](Cc1c[nH]c2ccccc12)C(=O)N[C@@H](CC(C)C)C(=O)N[C@@H](CC(C)C)C(=O)N[C@@H](CCCNC(=N)N)C(=O)NCC(=O)NCC(=O)N1CCC[C@H]1C(=O)N[C@@H](CCC(=O)O)C(=O)N[C@@H](CO)C(=O)NCC(=O)N[C@@H](C)C(=O)N1CCC[C@H]1C(=O)N1CCC[C@H]1C(=O)N1CCC[C@H]1C(=O)N[C@@H](CO)C(=O)O [Compound 28] (H-Y[Aib]EGTFTSDYSILLEK([εLys-εLys-γGlu-C18 diacid])QAAREFIEWLLRGGPESGAPPPS-OH) |  | 0.0865 | 0.0066
